pIC50: −log10 of the molar value. Read-outs that look alike come from different tables or passages of the source.
Tests used:
CDK9/Cyclin K = CDK9/Cyclin K (Homo sapiens, UniProt P50750); test: NanoBRET live-cell target engagement, NanoLuc-CDK9/Cyclin K in HEK-293; type: binding; conditions: 10µM
CDK11B/Cyclin L2 = CDK11B/Cyclin L2 (Homo sapiens, UniProt P21127); test: NanoBRET live-cell target engagement, CDK11B-NanoLuc/Cyclin L2 in HEK-293; type: binding; conditions: 10µM
CDK17/Cyclin Y = CDK17/Cyclin Y (Homo sapiens, UniProt Q00537); test: NanoBRET live-cell target engagement, CDK17-NanoLuc/Cyclin Y in HEK-293; type: binding; conditions: 10µM
CDK12/Cyclin K = CDK12/Cyclin K (Homo sapiens, UniProt Q9NYV4); test: NanoBRET live-cell target engagement, CDK12-NanoLuc/Cyclin K in HEK-293; type: binding; conditions: 10µM
Sequence of CDK12/Cyclin K (Q9NYV4 1-1481 isoform Q9NYV4-2): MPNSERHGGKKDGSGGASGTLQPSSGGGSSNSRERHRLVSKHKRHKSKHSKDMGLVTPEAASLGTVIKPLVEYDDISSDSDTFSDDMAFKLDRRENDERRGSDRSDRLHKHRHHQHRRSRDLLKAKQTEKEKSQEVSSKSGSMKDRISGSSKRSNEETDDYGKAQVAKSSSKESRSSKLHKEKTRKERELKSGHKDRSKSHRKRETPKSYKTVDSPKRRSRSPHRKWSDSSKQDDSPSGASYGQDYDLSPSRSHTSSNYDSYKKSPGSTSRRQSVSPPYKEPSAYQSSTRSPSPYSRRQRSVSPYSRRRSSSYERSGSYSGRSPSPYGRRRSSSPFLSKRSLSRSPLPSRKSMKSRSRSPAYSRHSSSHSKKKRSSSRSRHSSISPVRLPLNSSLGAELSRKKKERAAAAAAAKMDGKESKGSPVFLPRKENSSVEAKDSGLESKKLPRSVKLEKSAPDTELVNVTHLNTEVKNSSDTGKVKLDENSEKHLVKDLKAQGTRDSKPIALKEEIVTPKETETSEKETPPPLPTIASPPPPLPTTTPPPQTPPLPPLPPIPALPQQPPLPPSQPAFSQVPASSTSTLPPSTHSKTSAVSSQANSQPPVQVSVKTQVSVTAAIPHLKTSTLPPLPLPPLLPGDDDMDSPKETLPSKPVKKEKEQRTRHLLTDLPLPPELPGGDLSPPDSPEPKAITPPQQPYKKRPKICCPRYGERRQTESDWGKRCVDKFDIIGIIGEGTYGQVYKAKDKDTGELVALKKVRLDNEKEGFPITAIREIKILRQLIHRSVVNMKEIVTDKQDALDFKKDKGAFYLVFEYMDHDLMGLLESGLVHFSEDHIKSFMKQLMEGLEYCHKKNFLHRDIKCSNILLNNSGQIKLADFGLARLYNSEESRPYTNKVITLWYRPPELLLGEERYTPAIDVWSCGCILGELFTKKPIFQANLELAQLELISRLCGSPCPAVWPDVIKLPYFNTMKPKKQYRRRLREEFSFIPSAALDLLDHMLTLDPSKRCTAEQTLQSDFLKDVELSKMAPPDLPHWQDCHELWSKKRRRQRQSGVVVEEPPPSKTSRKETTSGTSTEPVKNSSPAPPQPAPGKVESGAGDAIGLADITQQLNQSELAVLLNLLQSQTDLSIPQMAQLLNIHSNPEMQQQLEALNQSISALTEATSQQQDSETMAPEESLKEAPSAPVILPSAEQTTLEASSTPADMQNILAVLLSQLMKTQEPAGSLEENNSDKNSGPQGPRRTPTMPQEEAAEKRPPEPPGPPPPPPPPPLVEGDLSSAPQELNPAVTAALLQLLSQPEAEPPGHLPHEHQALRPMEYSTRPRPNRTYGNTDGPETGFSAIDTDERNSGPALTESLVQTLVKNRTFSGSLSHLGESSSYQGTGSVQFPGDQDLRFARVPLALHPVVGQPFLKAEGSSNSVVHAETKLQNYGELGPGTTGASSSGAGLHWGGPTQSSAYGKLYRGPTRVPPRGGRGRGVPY
Sequence of CDK12/Cyclin K (O75909 whole entry partner): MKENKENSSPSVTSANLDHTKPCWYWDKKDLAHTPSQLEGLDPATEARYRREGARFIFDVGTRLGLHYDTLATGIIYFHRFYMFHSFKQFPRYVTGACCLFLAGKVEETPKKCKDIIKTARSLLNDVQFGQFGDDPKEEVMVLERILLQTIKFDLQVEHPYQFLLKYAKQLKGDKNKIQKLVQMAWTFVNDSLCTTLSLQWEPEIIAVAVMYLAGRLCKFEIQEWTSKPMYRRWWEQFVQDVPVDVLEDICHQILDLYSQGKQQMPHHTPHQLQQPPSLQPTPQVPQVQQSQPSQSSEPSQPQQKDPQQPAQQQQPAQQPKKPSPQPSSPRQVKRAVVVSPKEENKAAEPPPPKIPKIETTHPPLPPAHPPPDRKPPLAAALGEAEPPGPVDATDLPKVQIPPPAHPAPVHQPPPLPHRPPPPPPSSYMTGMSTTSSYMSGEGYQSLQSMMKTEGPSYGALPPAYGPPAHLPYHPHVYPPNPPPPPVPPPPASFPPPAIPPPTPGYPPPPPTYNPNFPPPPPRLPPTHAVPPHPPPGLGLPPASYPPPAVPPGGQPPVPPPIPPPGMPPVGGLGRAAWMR

CDK7 = CDK7 (Homo sapiens, UniProt P50613); test: NanoBRET live-cell target engagement, NanoLuc-CDK7 in HEK-293; type: binding; conditions: 10µM
CDK4/Cyclin D1 = CDK4/Cyclin D1 (Homo sapiens, UniProt P11802); test: NanoBRET live-cell target engagement, NanoLuc-CDK4/Cyclin D1 in HEK-293; type: binding; conditions: 10µM
Sequence of CDK4/Cyclin D1 (P11802 whole entry): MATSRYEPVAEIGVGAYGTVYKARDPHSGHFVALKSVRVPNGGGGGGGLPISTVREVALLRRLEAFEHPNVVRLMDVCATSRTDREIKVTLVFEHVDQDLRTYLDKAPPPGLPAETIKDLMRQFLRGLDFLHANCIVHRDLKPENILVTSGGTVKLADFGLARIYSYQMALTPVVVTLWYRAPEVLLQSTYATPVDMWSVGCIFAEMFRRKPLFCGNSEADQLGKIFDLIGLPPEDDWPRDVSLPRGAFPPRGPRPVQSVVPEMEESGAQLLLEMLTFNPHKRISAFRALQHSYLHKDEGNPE
Sequence of CDK4/Cyclin D1 (P24385 whole entry partner): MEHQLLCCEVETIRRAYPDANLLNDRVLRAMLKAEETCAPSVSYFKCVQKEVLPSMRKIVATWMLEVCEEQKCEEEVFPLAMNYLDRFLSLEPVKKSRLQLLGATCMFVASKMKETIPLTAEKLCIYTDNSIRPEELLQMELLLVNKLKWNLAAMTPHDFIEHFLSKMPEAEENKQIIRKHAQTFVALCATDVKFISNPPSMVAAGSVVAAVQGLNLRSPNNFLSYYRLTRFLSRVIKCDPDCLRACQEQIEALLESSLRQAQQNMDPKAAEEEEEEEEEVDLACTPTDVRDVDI

CDK10/Cyclin L2 = CDK10/Cyclin L2 (Homo sapiens, UniProt Q15131); test: NanoBRET live-cell target engagement, CDK10-NanoLuc/Cyclin L2 in HEK-293; conditions: 10µM
CDK19/Cyclin C = CDK19/Cyclin C (Homo sapiens, UniProt Q9BWU1); test: NanoBRET live-cell target engagement, NanoLuc-CDK19/Cyclin C in HEK-293; conditions: 10µM
CDK20/Cyclin H = CDK20/Cyclin H (Homo sapiens, UniProt Q8IZL9); test: NanoBRET live-cell target engagement, NanoLuc-CDK20/Cyclin H in HEK-293; type: binding; conditions: 10µM
CDK11A/Cyclin L2 = target: T1, CDK11A/Cyclin L2 (Homo sapiens, UniProt Q9UQ88); test: NanoBRET live-cell target engagement, CDK11A-NanoLuc/Cyclin L2 in HEK-293; type: binding; conditions: 10µM
T1 sequence (Q9UQ88 1-783): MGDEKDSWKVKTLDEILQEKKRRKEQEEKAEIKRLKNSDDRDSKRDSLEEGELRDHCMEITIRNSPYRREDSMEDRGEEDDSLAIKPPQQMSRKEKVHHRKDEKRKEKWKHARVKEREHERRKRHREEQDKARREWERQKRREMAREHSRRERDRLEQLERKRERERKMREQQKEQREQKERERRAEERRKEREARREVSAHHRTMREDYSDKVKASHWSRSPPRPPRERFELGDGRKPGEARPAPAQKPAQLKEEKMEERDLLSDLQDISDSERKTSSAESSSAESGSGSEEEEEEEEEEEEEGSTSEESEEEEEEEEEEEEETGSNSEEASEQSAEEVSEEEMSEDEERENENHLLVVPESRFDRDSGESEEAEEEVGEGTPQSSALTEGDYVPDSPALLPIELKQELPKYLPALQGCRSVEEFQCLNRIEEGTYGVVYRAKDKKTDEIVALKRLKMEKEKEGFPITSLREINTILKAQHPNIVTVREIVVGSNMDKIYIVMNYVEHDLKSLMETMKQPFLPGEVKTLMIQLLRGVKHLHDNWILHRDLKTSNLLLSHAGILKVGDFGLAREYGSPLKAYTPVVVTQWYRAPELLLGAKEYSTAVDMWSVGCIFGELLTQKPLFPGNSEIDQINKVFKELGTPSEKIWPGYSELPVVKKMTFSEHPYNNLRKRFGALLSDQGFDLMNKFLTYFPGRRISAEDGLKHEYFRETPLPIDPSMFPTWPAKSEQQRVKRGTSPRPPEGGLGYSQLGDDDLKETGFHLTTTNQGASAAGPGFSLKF

CDK16/Cyclin Y = CDK16/Cyclin Y (Homo sapiens, UniProt Q00536); test: NanoBRET live-cell target engagement, CDK16-NanoLuc/Cyclin Y in HEK-293; type: binding; conditions: 10µM
CDK5/CDK5R1 = CDK5/CDK5R1 (Homo sapiens, UniProt Q00535); test: NanoBRET live-cell target engagement, CDK5-NanoLuc/CDK5R1 in HEK-293; type: binding; conditions: 10µM
Sequence of CDK5/CDK5R1 (Q00535 whole entry): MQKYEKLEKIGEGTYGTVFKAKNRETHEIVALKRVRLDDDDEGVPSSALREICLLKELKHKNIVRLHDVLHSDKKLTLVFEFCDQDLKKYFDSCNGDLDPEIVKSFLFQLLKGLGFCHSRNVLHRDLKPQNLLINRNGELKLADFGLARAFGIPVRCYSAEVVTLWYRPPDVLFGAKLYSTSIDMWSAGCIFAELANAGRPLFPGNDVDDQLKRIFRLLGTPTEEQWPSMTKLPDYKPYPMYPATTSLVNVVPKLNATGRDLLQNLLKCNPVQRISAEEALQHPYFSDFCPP
Sequence of CDK5/CDK5R1 (Q15078 whole entry partner): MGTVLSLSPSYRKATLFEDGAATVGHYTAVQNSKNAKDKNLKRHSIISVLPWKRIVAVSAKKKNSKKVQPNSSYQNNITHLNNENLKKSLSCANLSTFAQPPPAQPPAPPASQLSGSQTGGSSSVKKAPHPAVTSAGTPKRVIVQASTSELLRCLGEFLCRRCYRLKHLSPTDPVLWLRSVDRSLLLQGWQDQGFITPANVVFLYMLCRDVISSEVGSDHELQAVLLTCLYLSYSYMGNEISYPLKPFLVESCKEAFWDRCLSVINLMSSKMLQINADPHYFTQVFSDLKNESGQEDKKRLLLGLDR

CDK6/Cyclin D1 = CDK6/Cyclin D1 (Homo sapiens, UniProt Q00534); test: NanoBRET live-cell target engagement, NanoLuc-CDK6/Cyclin D1 in HEK-293; type: binding; conditions: 10µM
CDK15/Cyclin Y = CDK15/Cyclin Y (Homo sapiens, UniProt Q96Q40); test: NanoBRET live-cell target engagement, NanoLuc-CDK15/Cyclin Y in HEK-293; type: binding; conditions: 10µM
CDK8/Cyclin C = CDK8/Cyclin C (Homo sapiens, UniProt P49336); test: NanoBRET live-cell target engagement, NanoLuc-CDK8/Cyclin C in HEK-293; type: binding; conditions: 10µM
CDK14/Cyclin Y = CDK14/Cyclin Y (Homo sapiens, UniProt O94921); test: NanoBRET live-cell target engagement, CDK14-NanoLuc/Cyclin Y in HEK-293; type: binding; conditions: 10µM
Sequence of CDK14/Cyclin Y (O94921 whole entry): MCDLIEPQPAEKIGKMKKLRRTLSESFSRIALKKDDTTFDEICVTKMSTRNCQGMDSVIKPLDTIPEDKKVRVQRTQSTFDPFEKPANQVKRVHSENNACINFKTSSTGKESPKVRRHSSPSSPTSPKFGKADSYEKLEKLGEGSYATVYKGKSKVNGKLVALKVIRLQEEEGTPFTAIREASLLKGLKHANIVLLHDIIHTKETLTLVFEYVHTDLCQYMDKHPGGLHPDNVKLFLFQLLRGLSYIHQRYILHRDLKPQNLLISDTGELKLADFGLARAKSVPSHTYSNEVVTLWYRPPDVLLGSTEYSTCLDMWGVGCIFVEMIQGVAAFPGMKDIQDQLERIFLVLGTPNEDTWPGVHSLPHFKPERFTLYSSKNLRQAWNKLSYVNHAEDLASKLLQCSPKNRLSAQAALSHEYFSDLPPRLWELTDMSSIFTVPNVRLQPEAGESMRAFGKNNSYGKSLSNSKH
Sequence of CDK14/Cyclin Y (Q8ND76 whole entry partner): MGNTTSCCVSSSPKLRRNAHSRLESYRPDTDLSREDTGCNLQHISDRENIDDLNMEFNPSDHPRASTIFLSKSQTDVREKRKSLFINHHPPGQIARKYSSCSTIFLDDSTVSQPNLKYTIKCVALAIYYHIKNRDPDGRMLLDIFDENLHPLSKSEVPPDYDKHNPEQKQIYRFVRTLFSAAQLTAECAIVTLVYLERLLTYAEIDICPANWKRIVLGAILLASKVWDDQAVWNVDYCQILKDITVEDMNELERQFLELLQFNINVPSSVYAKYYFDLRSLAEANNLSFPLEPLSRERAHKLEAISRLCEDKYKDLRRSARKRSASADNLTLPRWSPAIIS

CDK3/Cyclin E1 = CDK3/Cyclin E1 (Homo sapiens, UniProt Q00526); test: NanoBRET live-cell target engagement, CDK3-NanoLuc/Cyclin E1 in HEK-293; type: binding
CDK13/Cyclin K = CDK13/Cyclin K (Homo sapiens, UniProt Q14004); test: NanoBRET live-cell target engagement, CDK13-NanoLuc/Cyclin K in HEK-293; type: binding; conditions: 10µM
CDK18/Cyclin Y = CDK18/Cyclin Y (Homo sapiens, UniProt Q07002); test: NanoBRET live-cell target engagement, CDK18-NanoLuc/Cyclin Y in HEK-293; type: binding; conditions: 10µM
CDK1/Cyclin E1 = CDK1/Cyclin E1 (Homo sapiens, UniProt P06493); test: NanoBRET live-cell target engagement, CDK1-NanoLuc/Cyclin E1 in HEK-293; type: binding; conditions: 10µM
Sequence of CDK1/Cyclin E1 (P06493 whole entry): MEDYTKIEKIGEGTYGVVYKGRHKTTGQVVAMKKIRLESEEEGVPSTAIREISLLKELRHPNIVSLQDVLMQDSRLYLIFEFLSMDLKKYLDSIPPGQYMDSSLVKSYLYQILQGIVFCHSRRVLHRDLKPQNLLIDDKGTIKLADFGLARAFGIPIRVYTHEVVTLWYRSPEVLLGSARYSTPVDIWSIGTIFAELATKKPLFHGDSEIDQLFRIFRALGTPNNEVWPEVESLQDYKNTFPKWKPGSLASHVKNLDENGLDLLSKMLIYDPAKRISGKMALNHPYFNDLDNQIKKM
Sequence of CDK1/Cyclin E1 (P24864 whole entry partner): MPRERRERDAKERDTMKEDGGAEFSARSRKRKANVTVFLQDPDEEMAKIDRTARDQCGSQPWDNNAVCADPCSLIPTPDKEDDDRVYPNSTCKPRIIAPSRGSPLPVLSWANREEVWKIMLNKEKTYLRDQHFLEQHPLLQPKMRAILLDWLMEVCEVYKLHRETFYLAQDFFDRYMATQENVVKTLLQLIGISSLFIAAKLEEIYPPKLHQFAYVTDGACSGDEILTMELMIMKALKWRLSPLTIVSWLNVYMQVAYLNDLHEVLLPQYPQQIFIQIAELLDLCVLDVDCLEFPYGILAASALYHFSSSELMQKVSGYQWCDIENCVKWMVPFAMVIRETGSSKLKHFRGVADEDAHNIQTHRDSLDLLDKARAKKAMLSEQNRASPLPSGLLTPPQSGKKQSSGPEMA

Compound: O=C1NC(=NCc2cccs2)S/C1=C\c1ccc2ncccc2c1 [RO-3306]
- CDK9/K Inhibition at 10µM (%) (CDK9/Cyclin K; average of experiments): 29.2%
- CDK9/K Inhibition at 10µM (%) (CDK9/Cyclin K; independent experiment 1): 10.0%
- CDK9/K Inhibition at 10µM (%) (CDK9/Cyclin K; independent experiment 2): 48.5%
- CDK11b/L2 Inhibition at 10µM (%) (CDK11B/Cyclin L2; average of experiments): 10.3%
- CDK11b/L2 Inhibition at 10µM (%) (CDK11B/Cyclin L2; independent experiment 1): 7.5%
- CDK11b/L2 Inhibition at 10µM (%) (CDK11B/Cyclin L2; independent experiment 2): 13.1%
- CDK17/Y Inhibition at 10µM (%) (CDK17/Cyclin Y; average of experiments): 40.0%
- CDK17/Y Inhibition at 10µM (%) (CDK17/Cyclin Y; independent experiment 1): 13.8%
- CDK17/Y Inhibition at 10µM (%) (CDK17/Cyclin Y; independent experiment 2): 66.1%
- CDK12/K Inhibition at 10µM (%) (CDK12/Cyclin K; average of experiments): 10.6%
- CDK12/K Inhibition at 10µM (%) (CDK12/Cyclin K; independent experiment 1): 8.2%
- CDK12/K Inhibition at 10µM (%) (CDK12/Cyclin K; independent experiment 2): 13.0%
- CDK7 Inhibition at 10µM (%) (CDK7; average of experiments): 57.8%
- CDK7 Inhibition at 10µM (%) (CDK7; independent experiment 1): 37.4%
- CDK7 Inhibition at 10µM (%) (CDK7; independent experiment 2): 78.3%
- CDK4/D1 Inhibition at 10µM (%) (CDK4/Cyclin D1; average of experiments): -19.5%
- CDK4/D1 Inhibition at 10µM (%) (CDK4/Cyclin D1; independent experiment 1): 11.3%
- CDK4/D1 Inhibition at 10µM (%) (CDK4/Cyclin D1; independent experiment 2): -50.4%
- CDK10/L2 Inhibition at 10µM (%) (CDK10/Cyclin L2; average of experiments): 22.6%
- CDK10/L2 Inhibition at 10µM (%) (CDK10/Cyclin L2; independent experiment 1): 6.5%
- CDK10/L2 Inhibition at 10µM (%) (CDK10/Cyclin L2; independent experiment 2): 38.7%
- CDK19/C Inhibition at 10µM (%) (CDK19/Cyclin C; average of experiments): 19.5%
- CDK19/C Inhibition at 10µM (%) (CDK19/Cyclin C; independent experiment 1): 15.2%
- CDK19/C Inhibition at 10µM (%) (CDK19/Cyclin C; independent experiment 2): 23.8%
- CDK20/H Inhibition at 10µM (%) (CDK20/Cyclin H; independent experiment 1): 63.6%
- CDK20/H Inhibition at 10µM (%) (CDK20/Cyclin H; independent experiment 2): 19.4%
- CDK11a/L2 Inhibition at 10µM (%) (CDK11A/Cyclin L2; average of experiments): 25.4%
- CDK11a/L2 Inhibition at 10µM (%) (CDK11A/Cyclin L2; independent experiment 1): 51.4%
- CDK11a/L2 Inhibition at 10µM (%) (CDK11A/Cyclin L2; independent experiment 2): -0.5%
- CDK16/Y Inhibition at 10µM (%) (CDK16/Cyclin Y; independent experiment 1): 47.1%
- CDK16/Y Inhibition at 10µM (%) (CDK16/Cyclin Y; independent experiment 2): 19.7%
- CDK5/CDK5R1 Inhibition at 10µM (%) (CDK5/CDK5R1; average of experiments): -1.8%
- CDK5/CDK5R1 Inhibition at 10µM (%) (CDK5/CDK5R1; independent experiment 1): 10.9%
- CDK5/CDK5R1 Inhibition at 10µM (%) (CDK5/CDK5R1; independent experiment 2): -14.5%
- CDK6/D1 Inhibition at 10µM (%) (CDK6/Cyclin D1; average of experiments): 15.6%
- CDK6/D1 Inhibition at 10µM (%) (CDK6/Cyclin D1; independent experiment 1): 22.8%
- CDK6/D1 Inhibition at 10µM (%) (CDK6/Cyclin D1; independent experiment 2): 8.5%
- CDK15/Y Inhibition at 10µM (%) (CDK15/Cyclin Y; average of experiments): 22.3%
- CDK15/Y Inhibition at 10µM (%) (CDK15/Cyclin Y; independent experiment 1): 12.8%
- CDK15/Y Inhibition at 10µM (%) (CDK15/Cyclin Y; independent experiment 2): 31.8%
- CDK8/C Inhibition at 10µM (%) (CDK8/Cyclin C; average of experiments): 17.8%
- CDK8/C Inhibition at 10µM (%) (CDK8/Cyclin C; independent experiment 1): 15.7%
- CDK8/C Inhibition at 10µM (%) (CDK8/Cyclin C; independent experiment 2): 20.0%
- CDK14/Y Inhibition at 10µM (%) (CDK14/Cyclin Y; average of experiments): 0.0648%
- CDK14/Y Inhibition at 10µM (%) (CDK14/Cyclin Y; independent experiment 1): 3.4%
- CDK14/Y Inhibition at 10µM (%) (CDK14/Cyclin Y; independent experiment 2): -3.3%
- CDK3/E1 Inhibition at 10µM (%) (CDK3/Cyclin E1; average of experiments): 74.0%
- CDK3/E1 Inhibition at 10µM (%) (CDK3/Cyclin E1; independent experiment 1): 51.6%
- CDK3/E1 Inhibition at 10µM (%) (CDK3/Cyclin E1; independent experiment 2): 96.3%
- pIC50 (CDK3/Cyclin E1; independent experiment 1, read-out: CDK3/E1 IC50): 6.85
- pIC50 (CDK3/Cyclin E1; independent experiment 2, read-out: CDK3/E1 IC50): 6.55
- pIC50 (CDK3/Cyclin E1; independent experiment 3, read-out: CDK3/E1 IC50): 6.74
- pIC50 (CDK3/Cyclin E1; live HEK-293, 2 h, mean ± S.E.M. (n=3) or mean (n=2), read-out: IC50 for CDK/cyclin complexes, CDK3/E1): 6.70
- CDK13/K Inhibition at 10µM (%) (CDK13/Cyclin K; average of experiments): 7.2%
- CDK13/K Inhibition at 10µM (%) (CDK13/Cyclin K; independent experiment 1): 3.3%
- CDK13/K Inhibition at 10µM (%) (CDK13/Cyclin K; independent experiment 2): 11.1%
- CDK18/Y Inhibition at 10µM (%) (CDK18/Cyclin Y; average of experiments): 16.9%
- CDK18/Y Inhibition at 10µM (%) (CDK18/Cyclin Y; independent experiment 1): 3.1%
- CDK18/Y Inhibition at 10µM (%) (CDK18/Cyclin Y; independent experiment 2): 30.7%
- CDK1/E1 Inhibition at 10µM (%) (CDK1/Cyclin E1; average of experiments): 81.7%
- CDK1/E1 Inhibition at 10µM (%) (CDK1/Cyclin E1; independent experiment 1): 78.1%
- CDK1/E1 Inhibition at 10µM (%) (CDK1/Cyclin E1; independent experiment 2): 85.3%
